Data set [1] in a line: High-throughput equilibrium solubility at pH 6.8. Conditions: pH 6.8, aqueous buffer, thermodynamic from solid; read-out: HT-Eq Sol/pH 6.8. It counts as physicochemical. The gist of the method: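 Solubility was measured at pH 6.8 following the cited Zhou et al. (2007) procedure.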
Data set [2] is described as follows: Parallel Artificial Membrane Permeability Assay (PAMPA) at pH 6.8. It counts as physicochemical. The gist of the method:
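PAMPA permeability measured at pH 6.8 following the Wohnsland and Faller method; value reported as log Pe.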
For orientation: The PAMPA barrier holds no transporters, so it reflects passive diffusion.

In data set [3] the target is T1, PI3K alfa (Homo sapiens, UniProt P42336).
T1 construct: His tag (C); made in house; host or cells: baculovirus BV1075; Tn5 (Trichoplusia ni) or TiniPro insect cells
The data set can be described thus: PI3K alpha kinase assay (Kinase-Glo luminescence). It counts as biochemical. Conditions: read-out: EPK_PI3Kalfa/IC50. The gist of the method:
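Kinase-Glo luminescence read of ATP remaining after PI3Kα (10 nM) phosphorylates 10 μg/mL bovine liver phosphatidylinositol with 1 μM ATP, pH 7.5 TRIS, 3 mM MgCl2, 0.05% CHAPS; 60 min at room temperature. IC50 from 4-parameter logistic fit over 8 concentrations.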
For orientation: In Kinase-Glo more light means more ATP remaining.

Data set [4] addresses T2, PI3K delta (Homo sapiens, UniProt O00329).
T2 construct: for the full-length p110-d subunit are generated and fused by overlapping PCR; His tag (C); made in house; host or cells: baculovirus BV1060; Tn5 (Trichoplusia ni) or TiniPro insect cells
The experiment in a line: PI3K delta kinase assay (Kinase-Glo luminescence). It counts as biochemical. Conditions: read-out: EPK_PI3Kdelta/IC50. The gist of the method: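 Kinase-Glo ATP-depletion luminescence using 10 nM p85(iSH2)-linker-p110δ full-length His-tag construct from insect cells, with 1 μM ATP and 10 μg/mL phosphatidylinositol in 10 mM Tris pH 7.5, 3 mM MgCl2, 50 mM NaCl, 0.05% CHAPS, 1 mM DTT. 60 min room temperature; IC50 from 4-parameter logistic fit over 8 concentrations.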

≈ marks a conversion by molar mass, not a printed value.

T1 sequence (P42336 with tags, fused parts or gaps limits assumed): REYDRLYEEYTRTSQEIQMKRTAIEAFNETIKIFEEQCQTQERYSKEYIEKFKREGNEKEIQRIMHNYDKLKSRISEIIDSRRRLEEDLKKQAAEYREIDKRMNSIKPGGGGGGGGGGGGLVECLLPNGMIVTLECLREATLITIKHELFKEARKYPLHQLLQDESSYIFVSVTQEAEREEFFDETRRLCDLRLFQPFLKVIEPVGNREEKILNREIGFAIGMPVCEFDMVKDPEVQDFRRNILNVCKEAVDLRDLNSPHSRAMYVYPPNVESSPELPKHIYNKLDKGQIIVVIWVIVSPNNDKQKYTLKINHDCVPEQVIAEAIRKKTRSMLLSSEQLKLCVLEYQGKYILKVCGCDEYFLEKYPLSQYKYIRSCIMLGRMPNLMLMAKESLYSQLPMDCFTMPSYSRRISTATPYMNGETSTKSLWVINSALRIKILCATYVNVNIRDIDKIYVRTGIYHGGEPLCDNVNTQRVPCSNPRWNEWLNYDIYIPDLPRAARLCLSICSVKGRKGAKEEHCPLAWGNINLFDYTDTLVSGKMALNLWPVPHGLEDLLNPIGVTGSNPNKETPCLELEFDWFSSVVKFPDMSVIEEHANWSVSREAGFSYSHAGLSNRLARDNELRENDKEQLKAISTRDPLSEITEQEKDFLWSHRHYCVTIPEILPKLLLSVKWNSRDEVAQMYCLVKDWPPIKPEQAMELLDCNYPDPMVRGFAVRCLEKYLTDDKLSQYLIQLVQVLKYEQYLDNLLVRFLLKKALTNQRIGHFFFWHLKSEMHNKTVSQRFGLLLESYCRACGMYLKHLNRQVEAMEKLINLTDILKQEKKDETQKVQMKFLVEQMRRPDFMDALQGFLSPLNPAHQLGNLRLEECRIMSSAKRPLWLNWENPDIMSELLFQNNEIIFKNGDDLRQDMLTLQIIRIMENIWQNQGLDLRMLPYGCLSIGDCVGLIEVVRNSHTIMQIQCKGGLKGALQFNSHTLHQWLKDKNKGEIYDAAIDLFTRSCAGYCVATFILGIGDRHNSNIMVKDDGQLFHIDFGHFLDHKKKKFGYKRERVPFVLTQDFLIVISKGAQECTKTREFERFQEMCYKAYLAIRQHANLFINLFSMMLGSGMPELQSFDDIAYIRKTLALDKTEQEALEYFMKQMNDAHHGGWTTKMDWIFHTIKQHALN
T2 sequence (O00329 with tags, fused parts or gaps limits assumed): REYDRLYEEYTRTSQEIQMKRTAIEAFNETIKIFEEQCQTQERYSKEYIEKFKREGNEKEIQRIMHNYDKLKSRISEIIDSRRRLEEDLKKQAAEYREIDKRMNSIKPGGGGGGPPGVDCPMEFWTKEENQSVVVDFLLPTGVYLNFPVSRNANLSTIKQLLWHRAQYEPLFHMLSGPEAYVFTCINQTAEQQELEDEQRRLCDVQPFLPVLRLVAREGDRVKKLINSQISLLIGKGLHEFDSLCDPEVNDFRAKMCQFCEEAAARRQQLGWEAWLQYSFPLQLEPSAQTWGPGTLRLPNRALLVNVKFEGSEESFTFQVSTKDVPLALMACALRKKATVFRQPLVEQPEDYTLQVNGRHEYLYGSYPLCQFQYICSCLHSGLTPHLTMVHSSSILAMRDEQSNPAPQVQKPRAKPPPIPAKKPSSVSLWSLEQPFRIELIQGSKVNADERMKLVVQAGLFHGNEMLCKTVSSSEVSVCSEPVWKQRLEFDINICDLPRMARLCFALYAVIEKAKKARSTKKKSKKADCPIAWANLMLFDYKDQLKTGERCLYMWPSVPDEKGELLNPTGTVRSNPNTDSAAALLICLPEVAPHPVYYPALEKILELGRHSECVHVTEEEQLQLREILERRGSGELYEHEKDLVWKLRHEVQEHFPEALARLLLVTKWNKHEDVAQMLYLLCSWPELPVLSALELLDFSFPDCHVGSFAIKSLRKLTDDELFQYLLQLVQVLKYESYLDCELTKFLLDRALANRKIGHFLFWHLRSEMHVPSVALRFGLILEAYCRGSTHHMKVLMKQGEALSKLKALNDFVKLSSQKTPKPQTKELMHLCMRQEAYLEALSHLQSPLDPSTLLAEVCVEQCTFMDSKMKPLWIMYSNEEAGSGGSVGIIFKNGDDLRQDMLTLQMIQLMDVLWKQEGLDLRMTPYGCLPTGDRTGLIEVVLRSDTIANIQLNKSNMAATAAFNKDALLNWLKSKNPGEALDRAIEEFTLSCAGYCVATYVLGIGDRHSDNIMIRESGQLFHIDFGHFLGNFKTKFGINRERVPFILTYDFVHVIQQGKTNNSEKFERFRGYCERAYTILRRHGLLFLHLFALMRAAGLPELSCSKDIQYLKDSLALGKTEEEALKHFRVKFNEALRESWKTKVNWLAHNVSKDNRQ

As to `COc1ncc(-c2ccc3ncc4c(c3c2)n(-c2ccc(N3CC[C@H](O)C3)nc2C)c(=O)n4C)c(OC)n1` [Example 32.3, 8-(2,4-Dimethoxy-pyrimidin-5-yl)-1-[6-((S)-3-hydroxy-pyrrolidin-1-yl)-2-methyl-pyridin-3-yl]-3-methyl-1,3-dihydro-imidazo[4,5-c]quinolin-2-one], in data set [1], the solubility thermodynamic is 30 µg/mL (≈ 58.4 µM). Moreover, the “HT-Perm logPe pH6.8” value in data set [2] was −5.3. The IC50 in data set [3] is 32 nM; in data set [4], 11 nM.
For `CNc1ncc(-c2ccc3ncc4c(c3c2)n(-c2ccc(N3CC[C@H](O)C3)nc2C)c(=O)n4C)cc1C(F)(F)F` [Example 32.5, 1-[6-((S)-3-Hydroxy-pyrrolidin-1-yl)-2-methyl-pyridin-3-yl]-3-methyl-8-(6-methylamino-5-trifluoromethyl-pyridin-3-yl)-1,3-dihydro-imidazo[4,5-c]quinolin-2-one] the same measures were 49 µg/mL (≈ 89.2 µM), −4.5, 9 nM and 4 nM.
Turning to `Cc1nc(N2CC[C@H](O)C2)ccc1-n1c(=O)n(C)c2cnc3ccc(-c4cncc(OC(C)C)c4)cc3c21` [Example 32.8, 1-[6-((S)-3-Hydroxy-pyrrolidin-1-yl)-2-methyl-pyridin-3-yl]-8-(5-isopropoxy-pyridin-3-yl)-3-methyl-1,3-dihydro-imidazo[4,5-c]quinolin-2-one], in data set [1], the solubility thermodynamic amounted to 120 µg/mL (≈ 235 µM). The “HT-Perm logPe pH6.8” value in data set [2] is −3.8. Further, the IC50 in data set [3] came out at 71 nM; in data set [4], 39 nM.
The corresponding values for `Cc1nc(C(F)(F)F)ccc1-n1c(=O)n(C)c2cnc3ccc(-c4cncc(C(C)(C)O)c4)cc3c21` [Example 33.1, 8-[5-(1-Hydroxy-1-methyl-ethyl)-pyridin-3-yl]-3-methyl-1-(2-methyl-6-trifluoromethyl-pyridin-3-yl)-1,3-dihydro-imidazo[4,5-c]quinolin-2-one] are 423 µg/mL (≈ 857 µM), −4.5, 13 nM and 6 nM.
The corresponding values for `CCNc1ncc(-c2ccc3ncc4c(c3c2)n(-c2ccc(N3CC[C@@H](O)C3)nc2C)c(=O)n4C)cc1C(F)(F)F` [Example 34.2, 8-(6-Ethylamino-5-trifluoromethyl-pyridin-3-yl)-1-[6-((R)-3-hydroxy-pyrrolidin-1-yl)-2-methyl-pyridin-3-yl]-3-methyl-1,3-dihydro-imidazo[4,5-c]quinolin-2-one] are 23 µg/mL (≈ 40.8 µM), −3.9, 28 nM and 12 nM.
On to `CCNc1ncc(-c2ccc3ncc4c(c3c2)n(-c2ccc(N3CC[C@@H](O)C3)nc2C)c(=O)n4C)cc1COCC` [Example 34.4, 8-(5-Ethoxymethyl-6-ethylamino-pyridin-3-yl)-1-[6-((R)-3-hydroxy-pyrrolidin-1-yl)-2-methyl-pyridin-3-yl]-3-methyl-1,3-dihydro-imidazo[4,5-c]quinolin-2-one], for which the solubility thermodynamic in data set [1] worked out at 172 µg/mL (≈ 311 µM). The “HT-Perm logPe pH6.8” value in data set [2] was −4.1. Also, the IC50 came to 65.5 nM in data set [3] and 26 nM in data set [4].

Values taken from patent publication US20100311714A1, “1H-IMIDAZO[4,5-c]QUINOLINONE COMPOUNDS” (priority 2009, published 2010).
